Series [1] is described as follows: Critical micelle concentration from surface tension data in aqueous 7% w/w gelatin solution. The series is classed as physicochemical. The note with it: aqueous solution containing 7% wt/wt deionised Type IV bone gelatin. The method, then: (§1) A number of surfactants were tested for their ease of dissolution in water. Furthermore, the critical micelle concentrations (CMCs) of the surfactants were determined in aqueous solution containing 7% weight/weight deionised Type IV bone gelatin. The CMCs were determined from surface tension data by estimating the break point in the plot of surface tension against log concentration (see M. J. Rosen, Surfactants and Interfacial Phenomena, 2nd Edition, Wiley (1989), 110).

Series [2] in a line: Ease of dissolution of surfactant in water. The series is classed as physicochemical. As to the method: as §1

Here are results for 2 substances from patent US6482975B1, “Bis-poly(ethylene oxide) surfactants and their use as antistats in photographic materials” (Eastman Kodak Company, priority 1998, dated 2002).

In the case of “Fluoroalkylthiosuccinic acid, Polyethylene glycol diester (II, R=C6F13CH2CH2,p=7)”, in series [1], the “CMC in molar terms (M) moles kg^−1” value came to 6e-05 M. In addition, in series [2], the “Solubility in Water” value is reported as “Dissolves easily with gentle”.
The corresponding values for “CxF2x+1(CH2)y—(CH2CH2O) z—OH [Zonyl FSN]” are 0.0003 M and “Requires relatively long stirring”.
